{"source": "patent US10265327B2", "about": "“V1A antagonists to treat phase shift sleep disorders” (Hoffmann-La Roche Inc., priority 2013, dated 2019)", "system": "C57BL/6J mice", "experiment": "Jet-lag test: behavioural re-entrainment to 6 h phase advance of the LD cycle", "format": "in vivo, mouse", "settings": "for days to total behavioural re-entrainment after the 6 h phase shift: mean ± SEM, n=5", "description": "In all studies described below, male young-adult C57BL/6J mice (4 weeks old at the beginning of experiments) were used. Animals were exposed to a light-dark cycle (LD) 12:12 (lights on from 8 h to 20 h geographical time; light intensity at 200 lux; during dark period dim red light of 5 lux) in individual cages with food and water ad libitum and temperature (22±1° C.) and humidity (55%±5%) controlled. LD cycle was represented as zeitgeber times (ZT) where ZT0 represents the lights on and ZT12 lights off. When animals were exposed to constant darkness conditions (DD), circadian times (CT) were used as time point references, where CT12 corresponds to activity onset.\nTo evaluate the effects of the V1a antagonist trans-8-chloro-5-methyl-1-(4-pyridin-2-yloxycyclohexyl)-4,6-dihydro-[1,2,4]triazolo[4,3-a][1,4]benzodiazepine on light synchronization of behavioural circadian rhythms, a jet-lag protocol of 6 h phase shift was used. After being under a LD cycle 12 h/12 h (for at least 10 days), mice were exposed to a 6 -h phase advance of the light-dark cycle (first “jet-lag” test, advance shift) and to the administration of vehicle or 30 mg/kg of the V1a antagonist trans-8-chloro-5-methyl-1-(4-pyridin-2-yloxycyclohexyl)-4,6-dihydro-[1,2,4]triazolo[4,3-a][1,4]benzodiazepine. On the day of the shift, the time of lights off was phase-advanced by 6 h. Here we used three groups of animals: a sham group (Group 1, n=3), animals in which the cannula was introduced in the oral cavity without any solution delivery; a vehicle group (Group 2, n=4), which received vehicle, and a 30 mg/kg trans-8-chloro-5-methyl-1-(4-pyridin-2-yloxycyclohexyl)-4,6-dihydro-[1,2,4]triazolo[4,3-a][1,4]benzodiazepine group (Group 3, n=5). All manipulations were at ZT6 (6 h after lights on) on the last LD cycle before the 6 h phase advance.\nIn a second experiment, using naive animals, a second jet-lag test was evaluated. Thus, using a new group of male mice, the effects of 30 mg/kg trans-8-chloro-5-methyl-1-(4-pyridin-2-yloxycyclohexyl)-4,6-dihydro-[1,2,4]triazolo[4,3-a][1,4]benzodiazepine on the re-synchronization to a 6 h phase advance of the LD cycle were tested. Animals under a LD cycle 12 h/12 h (for at least 10 days) were exposed to a phase advance of 6 h of the LD cycle and to the administration of vehicle or 30 mg/kg of the V1a antagonist trans-8-chloro-5-methyl-1-(4-pyridin-2-yloxycyclohexyl)-4,6-dihydro-[1,2,4]triazolo[4,3 -a][1,4]benzodiazepine at ZT/CT6. Similarly to the previous experiment, three groups of animals were used: a sham group (Group 1, n=3), animals in which the cannula was introduced in the oral cavity without any solution delivery; a vehicle group (Group 2, n=4) which received vehicle, and a 30 mg/kg trans-8-chloro-5-methyl-1 -(4-pyridin-2-yloxycyclohexyl)-4,6-dihydro-[1,2,4]triazolo[4,3 -a][1,4]benzodiazepine group (Group 3, n=5).\nThe locomotor activity rhythms were measured using infra-red detectors on the top of the cages and/or running wheels.\nRe-entrainment (jet-lag tests): For 6 h phase-shift (jet-lag protocol) the number of days after the shift for total re-entrainment was quantified, considering both the onset and offset of activity. The onsets and offsets of activity were identified automatically using ClockLab software. Thus, full resynchronization to a new LD cycle, after 6-hour phase shifts of the time of lights off, was considered when activity onset took place at the new time of lights off ±30 minutes. The number of days (transitory cycles) required to re-synchronize was calculated for each mouse. The speed of re-entrainment was evaluated calculating the onset of activity and the advance of it, in hours, daily. To evaluate the effects of manipulations on locomotion, the locomotor activity changes from 0 to 6 h after each treatment were quantified in 30 min intervals (see activity profiles determination).\nValues in all experiments are means ±SEM. […]", "note": "Entries after “also recorded” stand apart in the source; their conditions may differ."}
{"smiles": "CN1Cc2cc(Cl)ccc2-n2c(nnc2[C@H]2CC[C@H](Oc3ccccn3)CC2)C1", "note": "[Example 1, trans-8-chloro-5-methyl-1-(4-pyridin-2-yloxycyclohexyl)-4,6-dihydro-[1,2,4]triazolo[4,3-a][1,4]benzodiazepine]", "values": [{"measurement": "re-entrainment of the circadian clock to a new LD cycle (overall conclusion)", "setting": "both jet-lag experiments, 30 mg/kg", "result": "accelerates the re-entrainment"}, {"measurement": "locomotor activity induced by manipulations", "setting": "jet-lag test 1, 30 mg/kg at ZT6, 0 to 6 h after treatment", "result": "not significantly different between groups"}, {"measurement": "daily adjustment of onset of activity to the LD cycle (speed of re-entrainment)", "setting": "jet-lag test 1, 30 mg/kg at ZT6, first 5 days after the shift, 30 mg/kg", "result": "much more rapid daily adjustment; also recorded: significantly faster re-entrainment"}, {"measurement": "days to total behavioural re-entrainment after the 6 h phase shift", "setting": "jet-lag test 1, 30 mg/kg oral at ZT6", "result": "3.2 ± 0.33", "unit": "days"}, {"measurement": "increase in locomotion induced by manipulations", "setting": "second jet-lag test, naive mice, 30 mg/kg at ZT/CT6", "result": "not significantly different between groups"}, {"measurement": "daily adjustment of onset of activity to the LD cycle (speed of re-entrainment)", "setting": "second jet-lag test, naive mice, 30 mg/kg at ZT/CT6, first 4 days after the shift, 30 mg/kg", "result": "much more rapid daily adjustment; also recorded: significantly faster re-entrainment"}, {"measurement": "days to total behavioural re-entrainment after the 6 h phase shift", "setting": "second jet-lag test, naive mice, 30 mg/kg oral at ZT/CT6", "result": "3.4 ± 0.24", "unit": "days"}]}
